Assay results reported in US20250222146A1, “Radiopharmaceuticals Targeting Somatostatin Receptor 2 and Uses Thereof” (RayzeBio, Inc., priority 2023, published 2025).
Read-outs that look alike come from different tables or passages of the source. Numbered stars: 1 amine (or outer) side, 2 acyl side, 3 side chain; on linkers, the order of the positions; unused ones are H or OH. Square brackets hold non-standard residues; d marks the D form. Peptide text beside a SMILES is read from it. * marks the point of attachment. ξ: configuration not given here. DOTA(Lu)NH(CH2)6NHCOCH2 = O=C(CN1CCN2CCN3CCN(CC1)CC(=O)[O][Lu]([O]C(=O)C2)[O]C(=O)C3)NCCCCCCNC(=O)C*; X6 = O=C(CN1CCN2CCN3CCN(CC1)CC(=O)[O][Lu]([O]C(=O)C2)[O]C(=O)C3)NCCOCCOCCOCCNC(=O)C*; X3 = O=C(O)CN1CCN(CC(=O)O)CCN(CC(=O)NCCCCCCNC(=O)C*)CCN(CC(=O)O)CC1; dTrp(βS-Me) = C[C@@H](c1c[nH]c2ccccc12)[C@@H](N)C(=O)O; X4 = C[C@@H](c1ccccc1)[C@H](N[*:1])C(=O)[*:2]; Phe(3R-Me) = C[C@H](c1ccccc1)[C@H](N)C(=O)O; X22 = O=C([C@H](Cc1ccc(O)nc1)N[*:1])[*:2]; dNMeW = CN[C@H](Cc1c[nH]c2ccccc12)C(=O)O; NMeF = CN[C@@H](Cc1ccccc1)C(=O)O; 3Pal = N[C@@H](Cc1cccnc1)C(=O)O; 4Pal = N[C@@H](Cc1ccncc1)C(=O)O; Gly(cBu) = N[C@H](C(=O)O)C1CCC1; ξThr(3R) = C[C@@H](O)C(N)C(=O)O; NMehCys = CN[C@@H](CCS)C(=O)O; NMeK = CN[C@@H](CCCCN)C(=O)O

Target: SSTR2 (Homo sapiens, UniProt P30874)
Sequence (P30874 whole entry): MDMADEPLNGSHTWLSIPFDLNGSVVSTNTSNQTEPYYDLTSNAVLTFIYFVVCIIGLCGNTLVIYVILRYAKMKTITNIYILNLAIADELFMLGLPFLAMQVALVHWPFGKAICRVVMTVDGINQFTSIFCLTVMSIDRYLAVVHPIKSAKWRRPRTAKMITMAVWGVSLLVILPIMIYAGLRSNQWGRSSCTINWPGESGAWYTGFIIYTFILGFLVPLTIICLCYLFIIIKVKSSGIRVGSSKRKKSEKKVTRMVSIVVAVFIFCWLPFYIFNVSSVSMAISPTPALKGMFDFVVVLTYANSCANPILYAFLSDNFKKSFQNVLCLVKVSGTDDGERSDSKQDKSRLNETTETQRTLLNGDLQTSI
Assay: SSTR binding affinity by radioligand binding competition assay ([125I]-Tyr11-Somatostatin, membrane extracts)
Experimental: Macrocyclic peptides in this invention were tested for binding to SSTR protein by a radioligand binding competition assay. For radioligand binding assay, competition binding is performed in duplicate in the wells of a 96 well plate containing binding buffer (HEPES 25 mM pH 7.4, MgCl2 5 mM, CaCl2 1 mM, BSA 0.5%, Saponine 10 μg/ml)), membrane extracts (0.6 μg protein/well), radiotracer ([125I]-Tyr11-Somatostatin, Perkin Elmer NEX389) and test compound. Nonspecific binding is determined by co-incubation with 200-fold excess of cold competitor (SST28). The samples are incubated in a final volume of 0.1 ml for 60 min at room temperature and then filtered over UniFilter-96 GF/C (Revvity 6055690) filter plates. Filters are washed six times with 0.5 ml of ice-cold washing buffer (HEPES 25 mM pH 7.4, MgCl2 5 mM, CaCl2 1 mM) and 50 μl of Microscint 20 (Packard) are added in each well. The plates are incubated 15 min on an orbital shaker and then counted with a TopCount™ for 1 min/well. For IC50 to Ki determination, the Cheng Prusoff equation is used: Ki=IC50/(1+ [tracer]/Kd). [Tracer] is 0.1 nM as mentioned above.

[1] = radioligand competition, [125I]-Tyr11-Somatostatin 0.1 nM, membrane extracts, Ki from IC50 by Cheng Prusoff, read-out: SSTR2 Ki

| Structure (SMILES) | Ki [1] | other results |
| --- | --- | --- |
| C[C@@H](O)[C@@H]1NC(=O)[C@H](CCCCN)NC(=O)[C@@H](Cc2c[nH]c3ccccc23)NC(=O)[C@H](Cc2ccc(O)cc2)NC(=O)[C@H](CCSCCC(=O)NCCCCC[C@H](NC(=O)CN2CCN3CCN4CCN(CC2)CC(=O)[O][Lu]([O]C(=O)C3)[O]C(=O)C4)C(=O)O)N(C)C(=O)[C@H](Cc2ccccc2)NC1=O [RB-0003375] | 1 to 3.33 nM |  |
| C[C@@H](O)[C@@H]1NC(=O)[C@H](CCCCN)NC(=O)[C@@H]([C@@H](C)c2c[nH]c3ccccc23)NC(=O)[C@H](Cc2ccncc2)NC(=O)[C@H](CCSCC(=O)NCCCCCCNC(=O)CN2CCN3CCN4CCN(CC2)CC(=O)[O][Lu]([O]C(=O)C3)[O]C(=O)C4)N(C)C(=O)[C@H](Cc2ccccc2)NC1=O [RB-0003381] (cyclo([4Pal][dTrp(βS-Me)]KTF[NMehCys](DOTA(Lu)NH(CH2)6NHCOCH2))) | < 1 nM |  |
| C[C@@H](O)[C@@H]1NC(=O)[C@H](CCCCN)NC(=O)[C@@H]([C@@H](C)c2c[nH]c3ccccc23)NC(=O)[C@H](Cc2cccnc2)NC(=O)[C@H](CCSCC(=O)NCCCCCCNC(=O)CN2CCN3CCN4CCN(CC2)CC(=O)[O][Lu]([O]C(=O)C3)[O]C(=O)C4)N(C)C(=O)[C@H](Cc2ccccc2)NC1=O [RB-0003382] (cyclo([3Pal][dTrp(βS-Me)]KTF[NMehCys](DOTA(Lu)NH(CH2)6NHCOCH2))) | < 1 nM |  |
| C[C@H](c1ccccc1)[C@@H]1NC(=O)[C@H](CCSCC(=O)NCCCCCCNC(=O)CN2CCN3CCN4CCN(CC2)CC(=O)[O][Lu]([O]C(=O)C3)[O]C(=O)C4)N(C)C(=O)[C@H](Cc2ccccc2)NC(=O)[C@H]([C@@H](C)O)NC(=O)[C@H](CCCCN)NC(=O)[C@@H]([C@@H](C)c2c[nH]c3ccccc23)NC1=O [RB-0003383] (cyclo(F[NMehCys](DOTA(Lu)NH(CH2)6NHCOCH2)[Phe(3R-Me)][dTrp(βS-Me)]KT)) | < 1 nM |  |
| C[C@@H](O)[C@@H]1NC(=O)[C@H](CCCCN)NC(=O)[C@@H]([C@@H](C)c2c[nH]c3ccccc23)NC(=O)[C@H](Cc2ccncc2)NC(=O)[C@H](CCSCC(=O)NCCCCCCNC(=O)CN2CCN(CC(=O)O)CCN(CC(=O)O)CCN(CC(=O)O)CC2)N(C)C(=O)[C@H](Cc2cccnc2)NC1=O [RB-0003407] (cyclo([3Pal][NMehCys](X3)[4Pal][dTrp(βS-Me)]KT)) |  | Ki (read-out: SSTR2 Ki): 1 to 3.33 nM |
| C[C@H](c1ccccc1)[C@@H]1NC(=O)[C@H]([C@@H](C)O)NC(=O)[C@H](CCCCN)NC(=O)[C@@H]([C@@H](C)c2c[nH]c3ccccc23)NC(=O)[C@H](Cc2ccncc2)NC(=O)[C@H](CCSCC(=O)NCCCCCCNC(=O)CN2CCN(CC(=O)O)CCN(CC(=O)O)CCN(CC(=O)O)CC2)N(C)C1=O [RB-0003408] |  | Ki (read-out: SSTR2 Ki): 1 to 3.33 nM |
| C[C@@H](O)[C@@H]1NC(=O)[C@H](CCCCN)NC(=O)[C@@H]([C@@H](C)c2c[nH]c3ccccc23)NC(=O)[C@H](Cc2ccncc2)NC(=O)[C@H](CCSCC(=O)NCCCCCCNC(=O)CN2CCN(CC(=O)O)CCN(CC(=O)O)CCN(CC(=O)O)CC2)N(C)C(=O)[C@H]([C@@H](C)c2ccccc2)NC1=O [RB-0003409] |  | Ki (read-out: SSTR2 Ki): < 1 nM |
| C[C@@H](O)[C@@H]1NC(=O)[C@H](CCCCN)NC(=O)[C@@H](Cc2c[nH]c3ccccc23)NC(=O)[C@H](Cc2ccncc2)NC(=O)[C@H](CCSCC(=O)NCCCCCCNC(=O)CN2CCN3CCN4CCN(CC2)CC(=O)[O][Lu]([O]C(=O)C3)[O]C(=O)C4)N(C)C(=O)[C@H](Cc2ccncc2)NC1=O [RB-0003443] (cyclo([4Pal][NMehCys](DOTA(Lu)NH(CH2)6NHCOCH2)[4Pal][dW]KT)) | 10 to 33.3 nM |  |
| C[C@@H](O)[C@@H]1NC(=O)[C@H](CCCCN)NC(=O)[C@@H](Cc2c[nH]c3ccccc23)NC(=O)[C@H](Cc2ccncc2)NC(=O)[C@H](CCSCC(=O)NCCCCCCNC(=O)CN2CCN3CCN4CCN(CC2)CC(=O)[O][Lu]([O]C(=O)C3)[O]C(=O)C4)N(C)C(=O)[C@H](Cc2cccnc2)NC1=O [RB-0003445] (cyclo([3Pal][NMehCys](DOTA(Lu)NH(CH2)6NHCOCH2)[4Pal][dW]KT)) | 3.33 to 10 nM |  |
| C[C@@H](O)[C@@H]1NC(=O)[C@H](CCCCN)NC(=O)[C@@H](Cc2c[nH]c3ccccc23)NC(=O)[C@H](Cc2ccncc2)NC(=O)[C@H](CCSCC(=O)NCCCCCCNC(=O)CN2CCN3CCN4CCN(CC2)CC(=O)[O][Lu]([O]C(=O)C3)[O]C(=O)C4)N(C)C(=O)[C@H]([C@@H](C)c2ccccc2)NC1=O [RB-0003447] (cyclo([4Pal][dW]KT[X4][NMehCys](DOTA(Lu)NH(CH2)6NHCOCH2))) | 3.33 to 10 nM |  |
| C[C@H](c1ccccc1)[C@@H]1NC(=O)[C@H]([C@@H](C)O)NC(=O)[C@H](CCCCN)NC(=O)[C@@H](Cc2c[nH]c3ccccc23)NC(=O)[C@H](Cc2ccncc2)NC(=O)[C@H](CCSCC(=O)NCCCCCCNC(=O)CN2CCN3CCN4CCN(CC2)CC(=O)[O][Lu]([O]C(=O)C3)[O]C(=O)C4)N(C)C1=O [RB-0003449] (cyclo([4Pal][dW]KT[Phe(3R-Me)][NMehCys](DOTA(Lu)NH(CH2)6NHCOCH2))) | 10 to 33.3 nM |  |
| C[C@@H](O)[C@@H]1NC(=O)[C@H](CCCCN)NC(=O)[C@@H](Cc2c[nH]c3ccccc23)NC(=O)[C@H](Cc2ccncc2)NC(=O)[C@H](CCSCC(=O)NCCCCCCNC(=O)CN2CCN3CCN4CCN(CC2)CC(=O)[O][Lu]([O]C(=O)C3)[O]C(=O)C4)N(C)C(=O)[C@H](Cc2ccc(O)nc2)NC1=O [RB-0003451] (cyclo([4Pal][dW]KT[X22][NMehCys](DOTA(Lu)NH(CH2)6NHCOCH2))) | 3.33 to 10 nM |  |
| C[C@@H](O)[C@@H]1NC(=O)[C@H](CCCCN)N(C)C(=O)[C@@H](Cc2c[nH]c3ccccc23)N(C)C(=O)[C@H](Cc2ccc(O)cc2)NC(=O)[C@H](CCSCC(=O)NCCCCCCNC(=O)CN2CCN3CCN4CCN(CC2)CC(=O)[O][Lu]([O]C(=O)C3)[O]C(=O)C4)N(C)C(=O)[C@H](Cc2ccccc2)NC1=O [RB-0003455] (cyclo(F[NMehCys](DOTA(Lu)NH(CH2)6NHCOCH2)Y[dNMeW][NMeK]T)) | < 1 nM |  |
| C[C@H](O)[C@@H]1NC(=O)[C@H](CCCCN)NC(=O)[C@@H](Cc2c[nH]c3ccccc23)NC(=O)[C@H](Cc2ccc(O)cc2)NC(=O)[C@H](CCSCC(=O)NCCCCCCNC(=O)CN2CCN3CCN4CCN(CC2)CC(=O)[O][Lu]([O]C(=O)C3)[O]C(=O)C4)N(C)C(=O)[C@H](Cc2ccccc2)NC1=O [RB-0003464] |  | Ki (SSTR2 Ki, radioligand competition, [125I]-Tyr11-Somatostatin 0.1 nM, membrane extracts, Ki from IC50 by Cheng Prusoff): < 1 nM |
| C[C@@H](O)[C@@H]1NC(=O)[C@H](CCCCN)NC(=O)[C@@H](Cc2c[nH]c3ccccc23)NC(=O)[C@H](Cc2ccc(O)cc2)NC(=O)[C@H](CCCSCC(=O)NCCCCCNC(=O)CN2CCN3CCN4CCN(CC2)CC(=O)[O][Lu]([O]C(=O)C3)[O]C(=O)C4)N(C)C(=O)[C@H](Cc2ccccc2)NC1=O [RB-0003482] | < 1 nM |  |
| C[C@@H](O)[C@@H]1NC(=O)[C@H](CCCCN)NC(=O)[C@@H](Cc2c[nH]c3ccccc23)NC(=O)[C@H](Cc2ccc(O)cc2)NC(=O)[C@H](CCCSCC(=O)NCCCCCCNC(=O)CN2CCN3CCN4CCN(CC2)CC(=O)[O][Lu]([O]C(=O)C3)[O]C(=O)C4)N(C)C(=O)[C@H](Cc2ccccc2)NC1=O [RB-0003484] | < 1 nM |  |
| C[C@@H](O)[C@@H]1NC(=O)[C@H](CCCCN)NC(=O)[C@@H](Cc2c[nH]c3ccccc23)NC(=O)[C@H](Cc2ccc(O)cc2)NC(=O)[C@H](CCCSCC(=O)NCCOCCNC(=O)CN2CCN3CCN4CCN(CC2)CC(=O)[O][Lu]([O]C(=O)C3)[O]C(=O)C4)N(C)C(=O)[C@H](Cc2ccccc2)NC1=O [RB-0003486] | < 1 nM |  |
| C[C@@H](O)[C@@H]1NC(=O)[C@H](CCCCN)NC(=O)[C@@H](Cc2c[nH]c3ccccc23)NC(=O)[C@H](Cc2ccncc2)NC(=O)[C@H](CCSCC(=O)NCCOCCOCCOCCNC(=O)CN2CCN3CCN4CCN(CC2)CC(=O)[O][Lu]([O]C(=O)C3)[O]C(=O)C4)N(C)C(=O)[C@H](Cc2ccccc2)NC1=O [RB-0003504] (cyclo([4Pal][dW]KTF[NMehCys](X6))) | 1 to 3.33 nM |  |
| C[C@@H](O)[C@@H]1NC(=O)[C@H](CCCCN)NC(=O)[C@@H](Cc2c[nH]c3ccccc23)NC(=O)[C@H](Cc2ccc(O)cc2)NC(=O)[C@H](CCCCCNC(=O)CN2CCN3CCN4CCN(CC2)CC(=O)[O][Lu]([O]C(=O)C3)[O]C(=O)C4)N(C)C(=O)[C@H](Cc2ccccc2)NC1=O [RB-0004536] | < 1 nM |  |
| C[C@@H](O)C1NC(=O)[C@H](CCCCN)N(C)C(=O)[C@@H](Cc2c[nH]c3ccccc23)N(C)C(=O)[C@H](Cc2ccc(O)cc2)NC(=O)[C@H](CCSCC(=O)NCCCCCCNC(=O)CN2CCN3CCN4CCN(CC2)CC(=O)[O][Lu]([O]C(=O)C3)[O]C(=O)C4)N(C)C(=O)[C@H](Cc2ccccc2)N(C)C1=O (stereo partly drawn) [RB-0004538] (cyclo([NMeF][NMehCys](DOTA(Lu)NH(CH2)6NHCOCH2)Y[dNMeW][NMeK][ξThr(3R)])) | 3.33 to 10 nM |  |
| CN1C(=O)[C@H](Cc2ccccc2)NC(=O)[C@H](C2CCC2)NC(=O)[C@H](CCCCN)NC(=O)[C@@H](Cc2c[nH]c3ccccc23)NC(=O)[C@H](Cc2ccc(O)cc2)NC(=O)[C@@H]1CCSCC(=O)NCCCCCCNC(=O)CN1CCN2CCN3CCN(CC1)CC(=O)[O][Lu]([O]C(=O)C2)[O]C(=O)C3 [RB-0004540] (cyclo(F[NMehCys](DOTA(Lu)NH(CH2)6NHCOCH2)Y[dW]K[Gly(cBu)])) | < 1 nM |  |
